We go through one substance from patent US9157904B2, “Wnt antagonists and methods of treatment and screening” (OncoMed Pharmaceuticals, Inc., priority 2010, dated 2015).

The subject of data set [1] is PN13 tumors. Briefly: CK20 immunohistochemistry of treated PN13 tumors. Format: in vivo, NOD/SCID mice. Conditions: vs control antibody. The procedure:
(§1) The cell differentiation capability of FZD8-Fc was also evaluated in the OMP-PN13 pancreas tumor xenograft model. Dissociated OMP-PN13 cells (50,000 per animal) were injected subcutaneously into 6-8 week old male NOD/SCID mice. Tumor growth was monitored weekly and tumor measurements were initiated once tumors were palpable. On day 40 mice with average tumor volume of 114 mm^3 were randomized into 4 groups of 10 animals each. Animals were injected with either control antibody or FZD8-Fc (15 mg/kg). Administration of the FZD8-Fc and control antibody was performed via injection into the intraperitoneal cavity, twice weekly. After 19 days of treatment, the tumors were excised and immunohistochemistry analysis was performed using standard techniques. Briefly, tumors were fixed in formalin, embedded in paraffin, and tumor sections of 4 μm thickness were cut. After deparaffinization and hydration, the tumor sections were subjected to an antigen retrieval process in Tris buffer (pH 9.5). Sections were incubated with hydrogen peroxide (Sigma-Aldrich, St Louis, Mo.) for 10 minutes to block endogenous peroxidases. […]
Tumor sections were obtained and treated as described above. […] The bound antibody was detected using the immunohistochemistry protocol described above.

Data set [2] has as its system C28 colon tumor xenografts. In words: C28 colon tumor xenograft, combination with irinotecan. Particulars: C28 established tumors; FZD8-Fc 15 mg/kg once a week, irinotecan 15 mg/kg once a week, i.p. Type of data set: in vivo, NOD/SCID mice. The procedure: The effect of FZD8-Fc in combination with a chemotherapeutic agent on the growth of C28 colon tumor xenografts was analyzed. Dissociated C28 colon tumor cells (10,000 cells) were injected subcutaneously into 6-8 week old male NOD/SCID mice. Tumors were allowed to grow for 21 days until they reached an average volume of 128 mm^3. The mice were randomized (n=10 per group) and treated with FZD8-Fc (54F03) (15 mg/kg once a week), irinotecan (15 mg/kg once a week), a combination of FZD8-Fc and irinotecan or a control antibody. Administration of the FZD8-Fc, irinotecan and control antibody was performed via injection into the intraperitoneal cavity. Tumor growth was monitored and tumor volumes were measured with electronic calipers at the indicated time points. Data are expressed as mean±S.E.M.

Data set [3] is described as follows: Pharmacokinetics of FZD8-Fc variants in rats. Conditions: rat, tail vein, 10 mg/kg, plasma.
Protocol: The pharmacokinetics of several FZD8-Fc variants were assessed in rats in a two week pharmacokinetics (PK) study. […] Sprague Dawley rats, five males in each group, were dosed with FZD8-Fc variants via the tail vein at 10 mg/kg and followed for two weeks with samples collected at time points 1, 24, 48, 72, 96, 168, 240, and 336 hours. At each time point, 1 ml of blood was collected into potassium-EDTA tubes and centrifuged. The plasma supernatants were collected and frozen until the samples were analyzed.
The level of FZD8-Fc variant protein present in the plasma at each time point was quantified and the half-life of each FZD8-Fc variant was calculated.
The test system of data set [4] is PN4 tumors. In words: Flow cytometry for ESA and CD44 on treated PN4 tumors. Conditions: PN4 tumors harvested day 85, 5 tumors pooled; control antibody 12.7%. Type of data set: in vivo, NOD/SCID mice. The procedure: Control and treated tumors from the OMP-PN4 xenograft study described above were harvested at the end of the study (day 85). The tumors were processed and dissociated into single cells. Single cell suspensions derived from 5 tumors of each treatment group were pooled, and the pooled samples were then incubated on ice for 30 min with antibodies that bind mouse cells selectively (α-mouse CD45-biotin 1:200 dilution and rat α-mouse H2Kd-biotin 1:100 dilution, BioLegend, San Diego, Calif.), followed by addition of streptavidin-labeled magnetic beads (Invitrogen, Carlsbad, Calif.). Mouse cells were removed with the aid of a magnet. For analysis of human cell surface markers, the single tumor cell suspension was stained with anti-ESA (Biomeda, Hayward, Calif.) and anti-CD44 (BD Biosciences, San Jose, Calif.) antibodies which were directly conjugated to fluorochromes. Dead cells were excluded by using the viability dye DAPI. Flow cytometry was performed using a FACS Aria instrument (Becton Dickinson, Franklin Lakes, N.J.). Side scatter and forward scatter profiles were used to eliminate cell clumps.

Data set [5] relates to PN4 tumors. Briefly: Alcian blue staining of treated PN4 tumors. Format: in vivo, NOD/SCID mice. Conditions: day 85, vs control antibody or gemcitabine. Here is the method:
Increased cell differentiation of PN4 and PN8 tumors with FZD8-Fc treatment. Control and treated tumors from the OMP-PN4 xenograft study described above (Example 3) were harvested at the end of the study (day 85). Tumors were fixed in formalin, embedded in paraffin, and tumor sections of 4 μm thickness were cut. After deparaffinization and hydration, the sections were treated with aqueous acetic acid for 5 minutes at room temperature. The sections were then treated with 1% alcian blue in 3% aqueous acetic acid for 30 minutes and washed with water. Sections were counter-stained in neutral fast red, dehydrated and mounted. Using this method, sialomucins in the tissue samples stain blue and the background appears as pink or red.

In the next data set the test system is PN4 pancreas tumor. Briefly: PN4 pancreas tumor xenograft, tumor growth. Format: in vivo, NOD/SCID mice. Conditions: FZD8-Fc 15 mg/kg i.p. twice weekly, vs control antibody. Here is the method: The anti-tumor activity of FZD8-Fc (54F03) was evaluated in the PN4 pancreas tumor xenograft model. Dissociated OMP-PN4 cells (50,000 per animal) were injected subcutaneously into 6-8 week old male NOD/SCID mice. Tumor growth was monitored weekly and tumor measurements were initiated once tumors were palpable. On day 50, mice with average tumor volumes of 137 mm^3 were randomized into 4 groups of 10 animals each. Animals were injected with either control antibody, FZD8-Fc (15 mg/kg), gemcitabine (2 mg/kg) or a combination of FZD8-Fc and gemcitabine. Administration of the FZD8-Fc and gemcitabine was performed via injection into the intra-peritoneal cavity, once weekly (gemcitabine) or twice weekly (FZD8-Fc). Tumors were measured twice a week and tumor volume was determined using the formula ½(a×b^2); where a=length, and b=breadth. Data are expressed as mean and mean±S.E.M. Group means were compared using Student's two-tailed, unpaired t test.

Data set [6] has as its system PN13 tumors. In words: Alcian blue and Ki67 staining of treated PN13 tumors. Type of data set: in vivo, NOD/SCID mice. Particulars: FZD8-Fc 15 mg/kg i.p. twice weekly, 19 days, vs control antibody. Here is the method: as §1, with “peroxidases. Anti-Ki67 antibody (Dako, clone MIB-1) at 1:200 dilution in blocking buffer (3% NHS, 1% BSA, 0.1% Tween-20, in PBS) was added to each section and incubated for 1 hour. Slides were rinsed 3 times in PBST for 5 minutes each.” for “peroxidases.”

Data set [7] relates to PN13 tumors. In words: Muc16 immunohistochemistry of treated PN13 tumors. Type of data set: in vivo, NOD/SCID mice. Particulars: vs control antibody. Here is the method: as §1
Tumor sections from PN13 tumors treated with control antibody or FZD8-Fc were obtained and treated as described above. […] The bound antibody was detected using the immunohistochemistry protocol described above.

For the substance “54F03: Fri domain of human FZD8 fused to human IgG1 Fc with GRA linker; SEQ ID NO:1”, the “cells expressing CK20” value in the data set on PN13 tumors [1] was “increase in cells expressing CK20”. In addition, in data set [2], the “reduction in tumor growth over control antibody” value worked out at 66%. The substance further gave a t1/2 in hours in data set [3] of 162 h. Besides, the “bulk tumor population expressing both ESA and CD44 at high levels (double positive population)” value with PN4 tumors [4] turned out to be 1.9%. Further, the “cells expressing sialomucins (alcian blue)” value with PN4 tumors [5] is “increase in cells expressing sialomucins”. Besides, the “reduction in tumor growth” value in the data set on PN4 pancreas tumor amounted to 66%. In the data set on PN13 tumors [6], the “cells expressing sialomucins (alcian blue)” value is recorded as “increase in cells expressing sialomucins” and the “proliferating cells denoted by expression of Ki67” value is given as “decrease in proliferating cells”. For the same substance, the “cells expressing Muc16” value in the data set on PN13 tumors [7] was “increase in cells expressing Muc16”.
